# ChEMBL document CHEMBL2086377, “Synthesis and functionalization of cyclic sulfonimidamides: a novel chiral heterocyclic carboxylic Acid bioisostere” (ACS Med Chem Lett, 2012)
# Columns and labels:
# [1] = Dissociation constant, pKa of the compound at 10 mM by pressure-assisted capillary electrophoretic/mass spectrometric analysis; format: physicochemical
# [2] = Octanol-buffer partition coefficient, log D of the compound after 30 mins by shake flask method at pH 7.4
# in vitro = conditions: human, Caco-2
# Description: Efflux ratio of apparent permeability of the compound from basal to apical to apical to basal side of human Caco2 cells at 1 uM after 60 mins by LCMS analysis
# [3] = Apparent permeability of the compound from apical to basal side of human Caco2 cells at 1 uM after 60 mins by LCMS analysis; format: ADME, cell-based; conditions: Caco-2
SMILES,pKa at 10000 µM [1],logD at 0.5 h [2],"efflux ratio at 1 h, 1 µM (in vitro)","Papp A→B at 1 h, 1 µM [3] [nm/s]"
N#Cc1cccc(-c2cccc(-c3nn[nH]n3)c2)c1,4,0.7,255,< 3
Cc1ccc(-c2cccc(-c3nn[nH]n3)c2)cc1,4.1,1.3,,
N#Cc1cccc(-c2cccc(C(=O)O)c2)c1,,0.3,,
Cc1ccc(-c2cccc(C(=O)O)c2)cc1,4,,,
C[C@@H]1N[S@](=O)(c2cccc(-c3cccc(C#N)c3)c2)=NC1=O,5.8,,,23
Cc1ccc(-c2cccc([S@]3(=O)=NC(=O)[C@H](C)N3)c2)cc1,6,,,660
